Results reported in patent US10377741B2, “Substituted heteroaryl aldehyde compounds and methods for their use in increasing tissue oxygenation” (Global Blood Therapeutics, Inc., priority 2011, dated 2019).

How the values were obtained:
[1] = target: T1, purified Hemoglobin S (HbS) (Homo sapiens, UniProt P68871+P69905, E7V); assay: Modulation of hemoglobin oxygen affinity: oxygen equilibrium curves (HEMOX) in purified HbS; type: biochemical, human (homozygous sickle cell patients); conditions: 25 μM purified HbS, 45 min at 37° C.
T1 construct: HbS was purified by a modified procedure; from tissue; host or cells: blood of homozygous sickle cell patients (CHORI); for the polymerization assay purified by the CRO VIRUSYS
Protocol: Oxygen equilibrium curves (OEC) in purified Hemoglobin S (HbS) were measured by the change in p50, the partial pressure of oxygen at which the heme binding sites in the HbS sample are 50% saturated with oxygen. HbS was purified by a modified procedure (Antonini and Brunori, 1971; Heomoglobin and Myoglobin in their Reactions with Ligands; North Holland Publishing Company; Amsterdam, London) from blood obtained from homozygous sickle cell patients though the Hemoglobinopathy Center at Children's Hospital Oakland Research Institute (CHORI) with Institutional Review Board approval. Oxygen equilibrium curves were carried out with a HEMOX analyzer, (TCS Scientific, New Hope, Pa.). Five hundred μL of 250 μM purified HbS were diluted into 4.5 mL of HEMOX buffer (30 mM TES, 130 mM NaCl, 5 mM KCl, pH=7.4) resulting in a final hemoglobin concentration of 25 μM. The compounds were added at the final desired concentrations. The mixture was incubated for 45 min at 37° C. and then transferred to the Hemox sample chamber. The samples were saturated with oxygen by flushing with compressed air for 10 minutes. The samples were then flushed with pure nitrogen and the absorbance of deoxy-Hb was recorded as a function of the solution pO2. The oxygen equilibrium data was then fit to the Hill Model to obtain values for p50. The deoxygenation curves for both HbS alone (control) and HbS in the presence of compound were collected with the TCS software. The p50 for purified Hbs was typically 13.8±1.6. Delta p50 values were obtained from the p50 value for control minus the p50 value for HbS treated with compound divided by the p50 value for the control.
The compounds of Table 1 that were where tested in the assay above were all found to have positive delta p50 values. Delta p50% is calculated from [[p50(HbS) −p50(HbS treated with compound)]/p50(HbS)]×100. Table 2 below lists the delta p50% values where + indicates a delta p50% of between 0 and 29, ++ indicates a delta p50% of between 30 and 50, and +++ indicates a delta p50% of 50 or greater. Unless noted otherwise, the compounds in Table 2 were tested at 30 μM.

HbS/A = target: T2, HbS/A (Homo sapiens, UniProt P68871+P69905, E7V); assay: R/T assay (relaxed-to-tense transition under deoxygenated conditions); type: biochemical, human (homozygous sickle cell patients); conditions: compound at 9 μM; 3 μM HbS/A; % R remaining vs no treatment
T2 construct: A mixture of HbS/A was purified from blood; from tissue; host or cells: blood of homozygous sickle cell patients (CHORI)
Protocol: A relaxed-to-tense transition assay (“R/T assay”) was used to determine the ability of substituted benzaldehyde compounds to maintain the high-oxygen affinity relaxed (R) state of hemoglobin under deoxygenated conditions. This ability can be expressed as a “delta R” value (i.e., the change in the time-period of the R state after hemoglobin is treated with a compound, as compared to the period without treatment with the compound). Delta R is the % R to remaining after the compounds treatment compared with no treatment (e.g. if R % without treatment is 8% while with treatment with a target compound is 48% R at 30 μM, then % R is 40% for that compound.
A mixture of HbS/A was purified from blood obtained from homozygous sickle cell patients though the Hemoglobinopathy Center at Children's Hospital Oakland Research Institute (CHORI) with Institutional Review Board approval. HbS/A (at a final concentration of 3 μM) was incubated for 1 hr at 37° C. in presence or absence of compounds in […] potassium phosphate buffer, pH=7.4 and 30 μM 2, 3 diphosphoglycerate (DPG) in 96 well plates in a final volume of 160 μl. Compounds were added at different concentrations (3 μM to 100 μM final concentrations). Plates were covered with a Mylar film. After incubation was completed the Mylar cover was removed and the plates were placed in a Spectrostar Nano plate reader previously heated at 37° C. Five minutes later, N2 (flow rate=20 L/min) was flowed through the spectrophotometer. Spectroscopic measurements (300 nm to 700 nm) were taken every 5 min for 2 hours. Data analysis was performed by using linear regression from the data retrieved for all wavelengths.
Table 4 below lists the delta R values where + indicates a delta R of between 0 and 30, ++ indicates a delta R of between 30 and 50, and +++ indicates a delta R of 50 or greater. Unless noted otherwise, the compounds in Table 2 were tested at 30 μM.

Structure (SMILES) | delta p50% ([1]; compound at 30 μM) | delta R (HbS/A) | delta p50% ([1]; compound at 100 μM)
COC(=O)c1cccn2cc(COc3cnc(OC)cc3C=O)nc12 [Compound 53, methyl 2-((4-formyl-6-methoxypyridin-3-yloxy)methyl)imidazo[1,2-a]pyridine-8-carboxylate] | ++ (a delta p50% of between 30 and 50) | + (a delta R of between 0 and 30) | –
COc1cc(C=O)c(OCc2cccnc2-c2ccnn2COCC[Si](C)(C)C)cn1 [Compound 193, 2-methoxy-5-((2-(1-((2-(trimethylsilyl)ethoxy)methyl)-1H-pyrazol-5-yl)pyridin-3-yl)methoxy)isonicotinaldehyde] | ++ (a delta p50% of between 30 and 50) | + (a delta R of between 0 and 30) | –
Cc1ccc(OCc2ccc3cnn(C)c3c2)c(C=O)n1 [Compound 91, 6-methyl-3-((1-methyl-1H-indazol-6-yl)methoxy)picolinaldehyde] | ++ (a delta p50% of between 30 and 50) | +++ (a delta R of 50 or greater) | –
Cc1ccc(OCc2cccc3c2cnn3C(=O)OC(C)(C)C)c(C=O)n1 [Compound 86, tert-butyl 4-((2-formyl-6-methylpyridin-3-yloxy)methyl)-1H-indazole-1-carboxylate] | ++ (a delta p50% of between 30 and 50) | + (a delta R of between 0 and 30) | –
Cc1ccc(OCc2cccc3ncccc23)c(C=O)n1 [Compound 119, 6-methyl-3-(quinolin-5-ylmethoxy)picolinaldehyde] | ++ (a delta p50% of between 30 and 50) | ++ (a delta R of between 30 and 50) | –
CCOC(=O)C1CSC(c2cc(OC)ncc2OCc2cccn3ccnc23)N1 (stereo not drawn) [Compound 126, ethyl 2-(5-(imidazo[1,2-a]pyridin-8-ylmethoxy)-2-methoxypyridin-4-yl)thiazolidine-4-carboxylate] | + (a delta p50% of between 0 and 29) | – | –
COc1cc(C=O)c(OCc2cn3cc(C(F)(F)F)ccc3n2)cn1 [Compound 52, 2-methoxy-5-((6-(trifluoromethyl)imidazo[1,2-a]pyridin-2-yl)methoxy)isonicotinaldehyde] | – | – | + (a delta p50% of between 0 and 29)
COc1cc(C=O)c(OCc2cc(-c3nn[nH]n3)cn3ccnc23)cn1 [Compound 125, 5-((6-(2H-tetrazol-5-yl)imidazo[1,2-a]pyridin-8-yl)methoxy)-2-methoxyisonicotinaldehyde] | + (a delta p50% of between 0 and 29) | – | –
Cc1ccc(OCc2cccc3c2cnn3C)c(C=O)n1 [Compound 85, 6-methyl-3-((1-methyl-1H-indazol-4-yl)methoxy)picolinaldehyde] | + (a delta p50% of between 0 and 29) | – | –
Cc1ccc(OCc2ccc3c(c2)c(Cl)nn3C)c(C=O)n1 [Compound 109, 3-((3-chloro-1-methyl-1H-indazol-5-yl)methoxy)-6-methylpicolinaldehyde] | + (a delta p50% of between 0 and 29) | – | –
Cc1ccc(OCc2ccnc3c2c(C)nn3C)c(C=O)n1 [Compound 113, 3-((1,3-dimethyl-1H-pyrazolo[3,4-b]pyridin-4-yl)methoxy)-6-methylpicolinaldehyde] | + (a delta p50% of between 0 and 29) | – | –

Second part, the compound after the results:

delta p50% ([1]; compound at 30 μM) | delta R (HbS/A) | delta p50% ([1]; compound at 100 μM) | Structure (SMILES)
++ (a delta p50% of between 30 and 50) | + (a delta R of between 0 and 30) | – | COc1cc(C=O)c(OCc2ccncc2)cn1 [Compound 46, 2-methoxy-5-(pyridin-4-ylmethoxy)isonicotinaldehyde]
++ (a delta p50% of between 30 and 50) | ++ (a delta R of between 30 and 50) | – | COc1cc(C=O)c(OCc2cccc3c2cnn3C)cn1 [Compound 84, 2-methoxy-5-((1-methyl-1H-indazol-4-yl)methoxy)isonicotinaldehyde]
++ (a delta p50% of between 30 and 50) | + (a delta R of between 0 and 30) | – | COc1cc(C=O)c(OCc2cccnc2-c2cccnc2)cn1 [Compound 161, 5-([2,3′-bipyridin]-3-ylmethoxy)-2-methoxyisonicotinaldehyde]
+++ (a delta p50% of 50 or greater) | ++ (a delta R of between 30 and 50) | – | COc1cc(C=O)c(OCc2cccnc2Br)cn1 [Compound 63, 5-((2-bromopyridin-3-yl)methoxy)-2-methoxyisonicotinaldehyde]
++ (a delta p50% of between 30 and 50) | + (a delta R of between 0 and 30) | – | COCCn1nccc1-c1ncccc1COc1cnc(OC)cc1C=O [Compound 172, 2-methoxy-5-((2-(1-(2-methoxyethyl)-1H-pyrazol-5-yl)pyridin-3-yl)methoxy)isonicotinaldehyde]
+++ (a delta p50% of 50 or greater) | ++ (a delta R of between 30 and 50) | – | COc1cc(C=O)c(OCc2ccc3ccccc3n2)cn1 [Compound 45, 2-methoxy-5-(quinolin-2-ylmethoxy)isonicotinaldehyde]
+ (a delta p50% of between 0 and 29) | – | – | COc1cc(C=O)c(OCc2cccnc2C)cn1 [Compound 38, 2-methoxy-5-((2-methylpyridin-3-yl)methoxy)isonicotinaldehyde]
+ (a delta p50% of between 0 and 29) | – | – | COC(=O)c1cc(COc2cnc(OC)cc2C=O)c2nccn2c1 [Compound 137, methyl 8-(((4-formyl-6-methoxypyridin-3-yl)oxy)methyl)imidazo[1,2-a]pyridine-6-carboxylate]
++ (a delta p50% of between 30 and 50) | + (a delta R of between 0 and 30) | – | COc1cc(C=O)c(OCc2cncc(C)c2)cn1 [Compound 43, 2-methoxy-5-((5-methylpyridin-3-yl)methoxy)isonicotinaldehyde]
++ (a delta p50% of between 30 and 50) | + (a delta R of between 0 and 30) | – | COc1cc(C=O)c(OCc2cccnc2-n2cccn2)cn1 [Compound 134, 5-((2-(1H-pyrazol-1-yl)pyridin-3-yl)methoxy)-2-methoxyisonicotinaldehyde]
++ (a delta p50% of between 30 and 50) | ++ (a delta R of between 30 and 50) | – | COc1cc(C=O)c(OCc2cncc(Br)c2)cn1 [Compound 66, 5-((5-bromopyridin-3-yl)methoxy)-2-methoxyisonicotinaldehyde]
– | – | + (a delta p50% of between 0 and 29) | COc1cc(C=O)c(OCc2cn3cc(Br)ccc3n2)cn1 [Compound 56, 5-((6-bromoimidazo[1,2-a]pyridin-2-yl)methoxy)-2-methoxyisonicotinaldehyde]
+ (a delta p50% of between 0 and 29) | – | – | COc1cc(C=O)c(OCc2cncc(-c3ccn[nH]3)c2)cn1 [Compound 70, 5-((5-(1H-pyrazol-5-yl)pyridin-3-yl)methoxy)-2-methoxyisonicotinaldehyde]
+ (a delta p50% of between 0 and 29) | – | – | COc1cc(C=O)c(OCc2ccnc3cccnc23)cn1 [Compound 105, 5-((1,5-naphthyridin-4-yl)methoxy)-2-methoxyisonicotinaldehyde]
